{"source": "ChEMBL document CHEMBL4825757", "about": "“Optimization of 4,6-Disubstituted Pyrido[3,2-d]pyrimidines as Dual MNK/PIM Inhibitors to Inhibit Leukemia Cell Growth” (J Med Chem, 2021)", "key": {"[1]": {"experiment": "AUC (0 to t) in Sprague Dawley rat at 10 mg/kg, po measured after 24 hrs", "assay_type": "ADME, organism-based", "set-up": "route oral, dose 10 mg/kg, time 24 hrs", "settings": "in vivo"}, "[2]": {"molecular_target": "MAP kinase-interacting serine/threonine-protein kinase 1 (Homo sapiens, UniProt Q9BUB5)", "sequence (Q9BUB5 whole entry, looked up)": "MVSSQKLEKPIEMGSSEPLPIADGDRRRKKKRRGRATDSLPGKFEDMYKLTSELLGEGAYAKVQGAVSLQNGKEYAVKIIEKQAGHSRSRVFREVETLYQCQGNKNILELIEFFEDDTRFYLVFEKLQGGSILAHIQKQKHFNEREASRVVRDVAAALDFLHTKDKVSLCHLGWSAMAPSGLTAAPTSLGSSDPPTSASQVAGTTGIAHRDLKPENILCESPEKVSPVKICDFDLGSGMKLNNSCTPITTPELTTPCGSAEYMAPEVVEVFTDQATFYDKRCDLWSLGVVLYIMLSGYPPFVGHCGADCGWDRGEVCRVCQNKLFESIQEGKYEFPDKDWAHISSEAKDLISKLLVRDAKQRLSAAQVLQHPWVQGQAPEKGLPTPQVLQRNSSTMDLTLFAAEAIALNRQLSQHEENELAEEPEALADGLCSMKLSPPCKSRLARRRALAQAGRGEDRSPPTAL", "experiment": "Inhibition of MKN1 (unknown origin) at 1 uM in presence of ATP by HTRF assay"}, "[3]": {"molecular_target": "Serine/threonine-protein kinase B-raf (Homo sapiens, UniProt P15056)", "sequence (P15056 whole entry)": "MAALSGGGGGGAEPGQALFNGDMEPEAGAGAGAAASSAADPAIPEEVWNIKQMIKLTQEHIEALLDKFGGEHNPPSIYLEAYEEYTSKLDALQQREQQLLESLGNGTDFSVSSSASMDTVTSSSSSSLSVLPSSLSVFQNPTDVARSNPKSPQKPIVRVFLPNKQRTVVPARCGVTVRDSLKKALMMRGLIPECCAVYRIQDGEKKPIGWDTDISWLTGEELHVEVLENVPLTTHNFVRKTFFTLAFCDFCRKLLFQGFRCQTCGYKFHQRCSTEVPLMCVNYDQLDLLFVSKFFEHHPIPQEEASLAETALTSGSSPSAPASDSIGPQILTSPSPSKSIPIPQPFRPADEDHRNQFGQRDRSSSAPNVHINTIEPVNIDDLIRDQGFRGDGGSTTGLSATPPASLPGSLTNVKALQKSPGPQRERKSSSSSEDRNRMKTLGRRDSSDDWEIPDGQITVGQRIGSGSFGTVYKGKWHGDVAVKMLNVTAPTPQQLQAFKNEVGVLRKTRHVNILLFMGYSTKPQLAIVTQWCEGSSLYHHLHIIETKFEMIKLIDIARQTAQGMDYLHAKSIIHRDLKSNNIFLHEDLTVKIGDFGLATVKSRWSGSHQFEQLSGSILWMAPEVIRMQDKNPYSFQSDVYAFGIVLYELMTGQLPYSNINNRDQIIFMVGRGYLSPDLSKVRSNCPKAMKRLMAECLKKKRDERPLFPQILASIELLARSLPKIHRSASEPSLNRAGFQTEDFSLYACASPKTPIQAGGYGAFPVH", "experiment": "Inhibition of recombinant human B-Raf (416 to end residues) using myelin as substrate incubated for 40 mins in presence of [gamma-33P]-ATP by radiometric scintillation counting analysis"}, "[4]": {"molecular_target": "Serine/threonine-protein kinase pim-2 (Homo sapiens, UniProt Q9P1W9)", "sequence (Q9P1W9 whole entry)": "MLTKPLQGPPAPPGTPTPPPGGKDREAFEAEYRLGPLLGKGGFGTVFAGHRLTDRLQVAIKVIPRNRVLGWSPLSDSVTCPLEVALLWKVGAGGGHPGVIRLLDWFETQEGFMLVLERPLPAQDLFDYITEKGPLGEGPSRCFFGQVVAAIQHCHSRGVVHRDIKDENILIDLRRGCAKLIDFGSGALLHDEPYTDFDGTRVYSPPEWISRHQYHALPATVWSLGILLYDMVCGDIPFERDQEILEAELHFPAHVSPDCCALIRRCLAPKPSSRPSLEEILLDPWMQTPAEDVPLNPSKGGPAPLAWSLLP", "experiment": "Inhibition of recombinant human Pim2 (2 to end residues) using RSRHSSYPAGT as substrate incubated for 40 mins in presence of [gamma33P]ATP by scintillation counting based radiometry assay"}}, "note": "pIC50: −log10 of the molar value."}
{"molecule": "CC(C)Oc1cc(F)ccc1Nc1ncnc2ccc(-c3ccc(C(=O)N4CCNCC4)cc3)nc12", "values": [{"measurement": "AUC(0-t) at 24 h", "setting": "[1]", "value": 2850, "unit": "ng·h/mL"}, {"measurement": "inhibition", "setting": "[2]", "value": 97, "unit": "%"}, {"measurement": "pIC50", "setting": "[3]", "value": 5.65}, {"measurement": "pIC50", "setting": "[4]", "value": 6.63}]}
